The assay concerns zebrafish embryos. Briefly: Zebrafish embryo model of EMT inhibition. Conditions: 100 μM DAPT dissolved in the medium, 32-hpf embryos. The assay is classed as in vivo. The procedure:
The necessary embryos to develop the study were obtained and kept at 28.5° C. in the incubator until the treatment was to begin (24 hpf and 32 hpf). The embryos were dechorionated at 24 hpf and deposited on a Petri dish with E3 medium. Prior to injecting the product, the fish were treated with 0.04% tricaine and, once they were asleep, they were placed on an agarose plate with a number of wedge-shaped grooves, where the embryos were aligned and immobilised in order to be injected. The mixture of the assay product to be injected was loaded in the injection capillary and a volume of 15 nl was injected in the perivitelline space. 20 embryos were injected per condition. […] These were deposited in 24-well plates (5 embryos per well) in 0.5 ml of E3 medium without methylene blue or antibiotic, and incubated at 28.5° C. until they were to be analyzed. As a control, embryos were injected with HBSS +0.5% rhodamine-dextran. […]
The embryos were analyzed at 53, 72 and 96 hpf, and the presence of the following phenotypes was searched for in each of the embryos used in the study: • alteration of the somite bonds (somite boundaries). • morphological alterations of the embryos in general. • appearance of edemas in the pericardial area. • morphological alterations in the heart, as well as alterations in blood circulation and alterations in the formation of the vascular system.

As for `C[C@H](NC(=O)Cc1cc(F)cc(F)c1)C(=O)N[C@H](C(=O)OC(C)(C)C)c1ccccc1` [DAPT], the “phenotype of positive control” value is “appearance of pericardial edemas, alterations of the somite bonds, and alteration or absence of blood circulation”.

These data come from patent US20120220546A1, “COMPOSTIONS DESIGNED FOR THE INHIBITION AND/OR BLOCKING OF THE EPITHELIAL/MESENCHYMAL TRANSITION” (priority 2009, published 2012).
